Test results published in ChEMBL document CHEMBL6120955, “Computationally Driven Discovery of a BCR-ABL1 Kinase Inhibitor with Activity in Multidrug-Resistant Chronic Myeloid Leukemia” (J Med Chem, 2024).
Activity calls are given as the source filed them. The calls are words filed in the database; no cut-off is given here.

Legend:
in vitro = settings: dog, MDCK-MDR1
Homo sapiens = organism: Homo sapiens; experiment: Binding affinity to human PDGFR at 1 uM by KINOMEscan analysis
[1] = Stability in mouse hepatocytes; assay type: ADME, cell-based, Hepatocyte
[2] = Stability in human hepatocytes; assay type: ADME, cell-based, Hepatocyte
[3] = target: Mast/stem cell growth factor receptor Kit (Homo sapiens) (UniProt P10721); experiment: Binding affinity to human KIT at 1 uM by KINOMEscan analysis
Chain of Mast/stem cell growth factor receptor Kit (Homo sapiens) (P10721 whole entry): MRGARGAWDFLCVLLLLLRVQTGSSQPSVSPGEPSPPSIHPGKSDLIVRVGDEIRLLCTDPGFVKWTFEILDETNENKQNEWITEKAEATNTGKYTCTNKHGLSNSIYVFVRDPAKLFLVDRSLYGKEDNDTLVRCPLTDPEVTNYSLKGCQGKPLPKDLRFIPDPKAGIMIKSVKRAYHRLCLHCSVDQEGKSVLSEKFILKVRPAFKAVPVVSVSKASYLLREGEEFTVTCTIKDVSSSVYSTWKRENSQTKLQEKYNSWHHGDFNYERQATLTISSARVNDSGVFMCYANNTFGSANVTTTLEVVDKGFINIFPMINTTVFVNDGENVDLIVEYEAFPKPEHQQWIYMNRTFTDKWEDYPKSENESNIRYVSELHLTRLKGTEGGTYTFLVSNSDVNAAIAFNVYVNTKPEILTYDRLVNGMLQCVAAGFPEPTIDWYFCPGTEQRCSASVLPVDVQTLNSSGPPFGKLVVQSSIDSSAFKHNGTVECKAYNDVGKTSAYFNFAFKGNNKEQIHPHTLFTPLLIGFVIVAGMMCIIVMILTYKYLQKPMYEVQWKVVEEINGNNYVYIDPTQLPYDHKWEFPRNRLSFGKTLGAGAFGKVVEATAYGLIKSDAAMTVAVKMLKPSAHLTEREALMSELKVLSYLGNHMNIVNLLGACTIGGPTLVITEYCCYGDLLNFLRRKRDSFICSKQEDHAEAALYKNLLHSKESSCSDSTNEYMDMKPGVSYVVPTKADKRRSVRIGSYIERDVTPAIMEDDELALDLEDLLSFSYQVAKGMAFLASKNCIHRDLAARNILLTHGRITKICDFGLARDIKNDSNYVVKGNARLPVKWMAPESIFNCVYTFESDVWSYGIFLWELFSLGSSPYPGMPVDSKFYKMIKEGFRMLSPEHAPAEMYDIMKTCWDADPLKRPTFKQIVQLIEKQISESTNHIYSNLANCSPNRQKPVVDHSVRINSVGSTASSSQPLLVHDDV

Structure (SMILES)	efflux ratio (in vitro)	inhibition (Homo sapiens)	Stability [1]	Stability [2]	inhibition [3]
COc1cc2ncnc(Nc3cccc(Cl)c3F)c2cc1OCCON1CCN(C)CC1	0.9				
COc1cc2c(Nc3ccc(Cl)c(OC)n3)c(C#N)cnc2cc1OCCON1CCN(C)CC1		inactive	Stable	Stable	inactive
